This is an account of results in PubChem BioAssay AID248 (DTP/NCI, 2004).

Inconclusive results and toxic doses are left out.

The test deals with L1210 leukemia ip in BDF1 mice, survival T/C. As to the kind of experiment: NCI In Vivo Anticancer Drug Screen. Data for tumor model L1210 Leukemia (intraperitoneal) in B6D2F1 (BDF1) mice. The conditions noted are these: endpoint: mean survival time, higher = longer survival. Put shortly:
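Transplanted-tumor mice were given test agent; controls received vehicle only. Survival readings from the two groups were divided (treated over control).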

Where [1] appears, read: dose: 100.0 mg/kg/injection, schedule: Q04DX002 (ip), vehicle: Klucel (hydroxypropylcellulose) (HPC).
Where [2] appears, read: dose: 200.0 mg/kg/injection, schedule: Q04DX002 (ip), vehicle: Klucel (hydroxypropylcellulose) (HPC).
The mark [3] stands for this setting: dose: 400.0 mg/kg/injection, schedule: Q04DX002 (ip), vehicle: Klucel (hydroxypropylcellulose) (HPC).
[4] abbreviates: dose: 100.0 mg/kg/injection, schedule: Q01DX001 (ip), vehicle: saline.
Setting [5] is: dose: 200.0 mg/kg/injection, schedule: Q01DX001 (ip), vehicle: saline.
Setting [6] is: dose: 400.0 mg/kg/injection, schedule: Q01DX001 (ip), vehicle: saline.
Where [7] appears, read: dose: 100.0 mg/kg/injection, schedule: Q01DX001 (ip), vehicle: carboxymethylcellulose (CMC).
[8] abbreviates: dose: 100.0 mg/kg/injection, schedule: Q01DX009 (ip), vehicle: saline.
[9] abbreviates: dose: 200.0 mg/kg/injection, schedule: Q01DX001 (ip), vehicle: carboxymethylcellulose (CMC).
The mark [10] stands for this setting: dose: 200.0 mg/kg/injection, schedule: Q01DX009 (ip), vehicle: saline.
The mark [11] stands for this setting: dose: 400.0 mg/kg/injection, schedule: Q01DX001 (ip), vehicle: carboxymethylcellulose (CMC).
Setting [12] is: dose: 75.0 mg/kg/injection, schedule: Q01DX009 (ip), vehicle: Klucel (hydroxypropylcellulose) (HPC).
The mark [13] stands for this setting: dose: 100.0 mg/kg/injection, schedule: Q01DX009 (ip), vehicle: Klucel (hydroxypropylcellulose) (HPC).
Where [14] appears, read: dose: 100.0 mg/kg/injection, schedule: Q04DX003 (ip), vehicle: Klucel (hydroxypropylcellulose) (HPC).
The mark [15] stands for this setting: dose: 200.0 mg/kg/injection, schedule: Q01DX009 (ip), vehicle: Klucel (hydroxypropylcellulose) (HPC).
Setting [16] is: dose: 200.0 mg/kg/injection, schedule: Q04DX003 (ip), vehicle: Klucel (hydroxypropylcellulose) (HPC).
The mark [17] stands for this setting: dose: 400.0 mg/kg/injection, schedule: Q01DX009 (ip), vehicle: Klucel (hydroxypropylcellulose) (HPC).
[18] abbreviates: dose: 400.0 mg/kg/injection, schedule: Q04DX003 (ip), vehicle: Klucel (hydroxypropylcellulose) (HPC).

For the compound `COCn1c(C(=O)c2ccc(OC)cc2)cc2ccccc21`, the T/C under setting [1] was 102 % of control, the T/C under setting [2] is 95 % of control and the T/C under setting [3] is 98 % of control.
Consider `CCNC(=O)NCc1cc(C)ccc1C`, for which the T/C reads like this: under setting [1], 111 % of control; under setting [2], 108 % of control; under setting [3], 108 % of control.
On to `N#CC(C#N)=Cc1ccco1`, for which the T/C is 91 % of control (dose: 5.0 mg/kg/injection, schedule: Q01DX001 (ip), vehicle: saline); 102 % of control (dose: 10.0 mg/kg/injection, schedule: Q01DX001 (ip), vehicle: saline); 100 % of control (dose: 20.0 mg/kg/injection, schedule: Q01DX001 (ip), vehicle: saline); 94 % of control (dose: 40.0 mg/kg/injection, schedule: Q01DX001 (ip), vehicle: saline).
On to `NC(Cc1ccc(O)c(O)c1)C(=O)O` (stereo not drawn), for which the T/C runs as follows: under setting [4], 93 % of control; under setting [5], 95 % of control; under setting [6], 97 % of control.
Turning to `Cn1c(C=O)cc2ccccc21`, the T/C was 90 % of control under setting [7]; 94 % of control under setting [8]; 110 % of control (dose: 100.0 mg/kg/injection, schedule: Q04DX002 (ip), vehicle: saline); 98 % of control under setting [9]; 97 % of control under setting [10]; 104 % of control (dose: 200.0 mg/kg/injection, schedule: Q04DX002 (ip), vehicle: saline). Also, the T/C under setting [11] is 102 % of control and the T/C (dose: 400.0 mg/kg/injection, schedule: Q04DX002 (ip), vehicle: saline) is 100 % of control.
As for `N#Cc1cccn1O`, the T/C (dose: 37.5 mg/kg/injection, schedule: Q01DX009 (ip), vehicle: Klucel (hydroxypropylcellulose) (HPC)) is 104 % of control; the T/C under setting [12] is 100 % of control; the T/C (dose: 150.0 mg/kg/injection, schedule: Q01DX009 (ip), vehicle: Klucel (hydroxypropylcellulose) (HPC)) was 108 % of control.
For `CCC(=O)Oc1ccc(OCc2ccccc2)cc1`, the T/C is, setting by setting: under setting [13], 95 % of control; under setting [14], 95 % of control; under setting [15], 97 % of control; under setting [16], 98 % of control; under setting [17], 98 % of control; under setting [18], 95 % of control.
Regarding `CCCCCCCCCCCC(=O)NC(=S)Nc1ccccc1OCC`, the T/C was 89 % of control under setting [14], 90 % of control under setting [16] and 89 % of control under setting [18].
For the compound `N#CC(C#N)=C1C(=O)c2ccccc2-c2ccccc21`, the T/C by setting is: under setting [4], 107 % of control; under setting [5], 109 % of control; under setting [6], 105 % of control.
Consider `C[S+]1CCCCC1`, for which the T/C was 96 % of control (dose: 50.0 mg/kg/injection, schedule: Q01DX001 (ip), vehicle: saline) and 100 % of control under setting [4].
In the case of `COC(=O)c1sc2ccccc2c1C`, the T/C under setting [7] was 104 % of control, the T/C under setting [9] is 98 % of control and the T/C under setting [11] is 98 % of control.
Consider `CN(CCc1ccccc1)/N=N/c1nc[nH]c1C(N)=O`, for which the T/C is, setting by setting: (dose: 100.0 mg/kg/injection, schedule: Q01DX001 (ip), vehicle: saline with Tween-80) 96 % of control; under setting [13], 102 % of control; (dose: 100.0 mg/kg/injection, schedule: Q04DX003 (ip), vehicle: saline with Tween-80) 110 % of control; (dose: 118.0 mg/kg/injection, schedule: Q04DX003 (ip), vehicle: saline with Tween-80) 101 % of control; (dose: 150.0 mg/kg/injection, schedule: Q01DX009 (ip), vehicle: saline with Tween-80) 155 % of control; (dose: 177.0 mg/kg/injection, schedule: Q04DX003 (ip), vehicle: saline with Tween-80) 115 % of control. Further, the T/C (dose: 200.0 mg/kg/injection, schedule: Q01DX001 (ip), vehicle: saline with Tween-80) was 104 % of control; the T/C under setting [15] was 103 % of control; the T/C (dose: 200.0 mg/kg/injection, schedule: Q04DX003 (ip), vehicle: saline with Tween-80) was 112 % of control; the T/C (dose: 300.0 mg/kg/injection, schedule: Q01DX009 (ip), vehicle: saline with Tween-80) was 163 % of control; the T/C (dose: 400.0 mg/kg/injection, schedule: Q01DX001 (ip), vehicle: saline with Tween-80) is 118 % of control; the T/C under setting [17] is 113 % of control. Further, the T/C (dose: 400.0 mg/kg/injection, schedule: Q04DX003 (ip), vehicle: saline with Tween-80) was 150 % of control and the T/C (dose: 600.0 mg/kg/injection, schedule: Q04DX003 (ip), vehicle: saline with Tween-80) was 179 % of control.
For the compound `C=CCc1cc2c(cc(OC)c1=O)C(NC(C)=O)CCc1cc(OC)c(OC)c(OC)c1-2` (stereo not drawn), the T/C under setting [7] is 106 % of control, the T/C under setting [9] is 109 % of control and the T/C under setting [11] is 114 % of control.
As for `NC(N)=N/N=C(/c1ccccc1)c1ccccc1N`, the T/C was 105 % of control (dose: 15.0 mg/kg/injection, schedule: Q01DX Z (ip), vehicle: methylcellulose (MC)); 102 % of control (dose: 30.0 mg/kg/injection, schedule: Q01DX Z (ip), vehicle: methylcellulose (MC)); 105 % of control (dose: 60.0 mg/kg/injection, schedule: Q01DX Z (ip), vehicle: methylcellulose (MC)); 97 % of control (dose: 120.0 mg/kg/injection, schedule: Q01DX Z (ip), vehicle: methylcellulose (MC)); 88 % of control (dose: 120.0 mg/kg/injection, schedule: Q01DX Z (oral), vehicle: methylcellulose (MC)); 88 % of control (dose: 240.0 mg/kg/injection, schedule: Q01DX Z (ip), vehicle: methylcellulose (MC)). Also, the T/C is 98 % of control (dose: 240.0 mg/kg/injection, schedule: Q01DX Z (oral), vehicle: methylcellulose (MC)) and 101 % of control (dose: 480.0 mg/kg/injection, schedule: Q01DX Z (oral), vehicle: methylcellulose (MC)).
With `O=c1cc(C(F)(F)F)[nH]c2ccc(F)cc12`, the T/C is 102 % of control (dose: 5.0 mg/kg/injection, schedule: Q04DX003 (ip), vehicle: saline with Tween-80); 90 % of control (dose: 10.0 mg/kg/injection, schedule: Q04DX003 (ip), vehicle: saline with Tween-80); 97 % of control (dose: 20.0 mg/kg/injection, schedule: Q04DX003 (ip), vehicle: saline with Tween-80).
Turning to `[O-]/[N+](=N\Nc1ccccc1)c1ccccc1`, the T/C is 107 % of control (dose: 7.5 mg/kg/injection, schedule: Q01DX009 (ip), vehicle: saline with Tween-80); 104 % of control (dose: 15.0 mg/kg/injection, schedule: Q01DX009 (ip), vehicle: saline with Tween-80); 89 % of control (dose: 30.0 mg/kg/injection, schedule: Q01DX009 (ip), vehicle: saline with Tween-80); 96 % of control (dose: 60.0 mg/kg/injection, schedule: Q01DX009 (ip), vehicle: saline with Tween-80).
For `C=CCOCCO`, the T/C under setting [8] was 108 % of control; the T/C (dose: 100.0 mg/kg/injection, schedule: Q04DX003 (ip), vehicle: saline) is 100 % of control; the T/C under setting [10] was 108 % of control; the T/C (dose: 200.0 mg/kg/injection, schedule: Q04DX003 (ip), vehicle: saline) is 95 % of control; the T/C (dose: 400.0 mg/kg/injection, schedule: Q01DX009 (ip), vehicle: saline) was 101 % of control; the T/C (dose: 400.0 mg/kg/injection, schedule: Q04DX003 (ip), vehicle: saline) is 100 % of control.
For the compound `CCCOc1ccc(-c2nc(-c3ccc(N=Cc4ccc(N(CCOS(C)(=O)=O)CCOS(C)(=O)=O)cc4C)cc3)cs2)cc1`, the T/C is, setting by setting: (dose: 25.0 mg/kg/injection, schedule: Q01DX009 (ip), vehicle: Klucel (hydroxypropylcellulose) (HPC)) 114 % of control; (dose: 50.0 mg/kg/injection, schedule: Q01DX009 (ip), vehicle: Klucel (hydroxypropylcellulose) (HPC)) 109 % of control; under setting [12], 106 % of control; under setting [13], 94 % of control.
